Experimental findings from patent publication US20200390755A1, “COMPOUND FOR TREATING NERVOUS SYSTEM DISEASES AND USE THEREOF” (SHAANXI MICOT TECHNOLOGY CO., LTD., priority 2018, published 2020) are described below.

The test system of one assay is N171-82Q HD mice. Briefly: Rotarod experiment, HD mice. It is filed as in vivo, mouse. The conditions noted are these: 5 mg/kg/d intragastric, 12 w. As to the method: 7-week-old N171-82Q HD male mice were paired with female B6C3F1/J hybrid mice to obtain newborn mice. From 21 days of age, male mice were housed in separate cages. 0.5 cm of mouse tail tissue was removed to extract DNA to determine the genotype of the mouse, such that N171-82Q HD mice and WT mice needed for the experiment were obtained. The mice were randomly divided into WT Vehicle group (normal mice), WT test compound group (administration group of normal mice, 5 mg/kg/d, n=10), HD Vehicle group (blank group of HD mice, n=15), HD test compound group (administration groups 1-5 of HD mice, 5 mg/kg/d, n=10). The test compound was suspended in 1% CMC-Na solution and administered by intragastric administration until the end of the study. The weights of the mice were measured every week. Behavioral tests were performed at 12 weeks, 18 weeks, and 24 weeks of age to investigate motor function. At 20 weeks, 3 samples of tissue from each group were used for western blotting and immunohistochemistry. At 24 weeks, MRI scans were performed. At the end of the study, the effect of the test compound on the mortality of mice was evaluated.
The software Sigmaplot 13.0 was used for statistical analysis of the data, and the data of each group was expressed as mean standard error (x±SEM). Behavioral test results were analyzed using two-way (genotype and processing factor) ANOVA and post-ho tests, the comparison and statistics of weight data were performed using two-way (genotype and age) ANOVA of repeated measures, and mortality was counted using Kaplan-Meier method. Other measurement data were analyzed by one-way ANOVA. P<0.05 was considered statistically significant.
The motor function of mice was evaluated by the rotarod experiment and three types of balance beam experiments. The shorter the time for mouse to cross the balance beam, and the longer the time to drop, the stronger the coordination ability of the mouse.
The maximum time for mice fatigue rotarod was set to 5 minutes, and the acceleration was set from 4 rpm up to 40 rpm. Time record was began when the mouse was placed on the rotarod. The time the mouse remained on the rod, i.e., drop latent period, was recorded to indicate its motor coordination ability. One day before the rotarod experiment, each mouse was trained for 5 minutes, and then rested in the cage after the training session. On the day of the experiment, the mice were placed on the rotating rotarod for three rounds of tests, with a 30-minute rest between tests before entering the next round of test. The result was the average of the three tests.
On the technique in general: Falling from the rotarod earlier than controls is read as motor impairment.
Take `O=c1cc(-c2ccc(N3CCCCC3)cc2)oc2c(O)c(O)ccc12` [Example 1, 7,8-dihydroxy-2-(4-(piperidin-1-yl)phenyl)-4H-chromen-4-one]: the “Time to drop (drop latent period), rotarod” value (from here on “Time to drop”) is given as 95.90 ± 23.32 s.
On the same count and under the same terms, the value for `COc1ccc2c(=O)cc(-c3ccc(N4CCCCC4)cc3)oc2c1OC` [Example 2, 7,8-dimethoxy-2-(4-(piperidin-1-yl)phenyl)-4H-chromen-4-one] was 98.89 ± 21.35 s; that for `CN(C)C1CCN(c2ccc(-c3cc(=O)c4ccc(O)c(O)c4o3)cc2)CC1` [Example 3, 2-(4-(4-(dimethylamino)piperidin-1-yl)phenyl)-7,8-dihydroxy-4H-chromen-4-one] was 94.15 ± 30.15 s.
Still for that read-out and setting: to `CC1(C)CCN(c2ccc(-c3cc(=O)c4ccc(O)c(O)c4o3)cc2)CC1` [Example 4, 2-(4-(4,4-dimethylpiperidin-1-yl)phenyl)-7,8-dihydroxy-4H-chromen-4-one] belongs 95.09 ± 27.23 s.
The same measure, in the same setting: to `CC1CC(C)CN(c2ccc(-c3cc(=O)c4ccc(O)c(O)c4o3)cc2)C1` (centres unmarked) [Example 5, 2-(4-(3,5-dimethylpiperidin-1-yl)phenyl)-7,8-dihydroxy-4H-chromen-4-one] belongs 98.19 ± 29.17 s.

Staying with this assay, now noted: 5 mg/kg/d intragastric, 18 w.
As to `O=c1cc(-c2ccc(N3CCCCC3)cc2)oc2c(O)c(O)ccc12` [Example 1, 7,8-dihydroxy-2-(4-(piperidin-1-yl)phenyl)-4H-chromen-4-one], the “Time to drop” value was determined as 101.03 ± 32.39 s.
On the same count and under the same terms, to `COc1ccc2c(=O)cc(-c3ccc(N4CCCCC4)cc3)oc2c1OC` [Example 2, 7,8-dimethoxy-2-(4-(piperidin-1-yl)phenyl)-4H-chromen-4-one] belongs 107.40 ± 27.48 s; to `CN(C)C1CCN(c2ccc(-c3cc(=O)c4ccc(O)c(O)c4o3)cc2)CC1` [Example 3, 2-(4-(4-(dimethylamino)piperidin-1-yl)phenyl)-7,8-dihydroxy-4H-chromen-4-one], 103.40 ± 37.86 s; to `CC1(C)CCN(c2ccc(-c3cc(=O)c4ccc(O)c(O)c4o3)cc2)CC1` [Example 4, 2-(4-(4,4-dimethylpiperidin-1-yl)phenyl)-7,8-dihydroxy-4H-chromen-4-one], 99.86 ± 30.27 s.
On the same count and under the same terms, the value for `CC1CC(C)CN(c2ccc(-c3cc(=O)c4ccc(O)c(O)c4o3)cc2)C1` (centres unmarked) [Example 5, 2-(4-(3,5-dimethylpiperidin-1-yl)phenyl)-7,8-dihydroxy-4H-chromen-4-one] was 101.03 ± 32.39 s.

The same assay, now with this note: 5 mg/kg/d intragastric, 24 w.
For `O=c1cc(-c2ccc(N3CCCCC3)cc2)oc2c(O)c(O)ccc12` [Example 1, 7,8-dihydroxy-2-(4-(piperidin-1-yl)phenyl)-4H-chromen-4-one], the “Time to drop” value stood at 83.55 ± 29.07 s.
On the same count and under the same terms, the value for `COc1ccc2c(=O)cc(-c3ccc(N4CCCCC4)cc3)oc2c1OC` [Example 2, 7,8-dimethoxy-2-(4-(piperidin-1-yl)phenyl)-4H-chromen-4-one] was 89.67 ± 30.76 s; that for `CN(C)C1CCN(c2ccc(-c3cc(=O)c4ccc(O)c(O)c4o3)cc2)CC1` [Example 3, 2-(4-(4-(dimethylamino)piperidin-1-yl)phenyl)-7,8-dihydroxy-4H-chromen-4-one] was 90.06 ± 33.45 s; that for `CC1(C)CCN(c2ccc(-c3cc(=O)c4ccc(O)c(O)c4o3)cc2)CC1` [Example 4, 2-(4-(4,4-dimethylpiperidin-1-yl)phenyl)-7,8-dihydroxy-4H-chromen-4-one] was 79.15 ± 34.17 s.
For `CC1CC(C)CN(c2ccc(-c3cc(=O)c4ccc(O)c(O)c4o3)cc2)C1` (centres unmarked) [Example 5, 2-(4-(3,5-dimethylpiperidin-1-yl)phenyl)-7,8-dihydroxy-4H-chromen-4-one], the “Time to drop” value turned out to be 81.71 ± 30.15 s.

Another assay concerns AKT signaling pathway. Briefly: Western blotting of p-AKT and t-AKT in primary cortical neuron cells. It is filed as cell-based, mouse. The conditions noted are these: 500 nM, 10 min at 37° C., Vehicle = 100, n = 3. As to the method:
N171-82Q WT male mice were mated with female B6C3F1/J hybrid mice. B6C3F1/J mice 18 days after pregnancy were anesthetized with isoflurane and dissected to remove embryos, which were then placed in a 10 cm Petri dish containing Leibovitz's buffer. The head of the embryo was cut off, and the brain was peeled off to obtain the whole mouse brain, which was then placed in a new 10 cm Petri dish containing Leibovitz's buffer. The neurocortex of the brain was separated and placed in a 15 mL centrifuge tube containing 3 mL Leibovitz's buffer. The centrifuge tube was centrifuged at 1000 rpm for 1 minute, and the Leibovitz's buffer was gently removed from the centrifuge tube, and then 750 μL of 0.25% trypsin-EDTA and 75 μL of 0.1% DNase (2000 U/mL) were added to digest at 37° C. for 15 min. 750 μL of DMEM medium containing 5% FBS was added to stop the digestion. The cells were mixed well, and centrifuged at 1000 rpm for 5 minutes. Trypins/DNase mixture was removed, and 750 μL of Neurobasal medium (B-27, Glutamax, P/S) was added. The cells were mixed by gently pipetting with a pipette for 30 times. The cell suspension was filtered with a 40 µm filter and transferred to another new 50 mL centrifuge tube. 10 μL of the cell suspension was added to 90 μL of DMEM (diluted 10 times), and 10 μL of the liquid mixture was placed on a hemocytometer so that the suspension filled between the cover slip and the counting plate for counting. The cells in the four large grids of the plate were counted, wherein for the cells across the line, only the cells on the left and upper side lines were counted. The following formulas were used:
Number of cells/mL=total number of cells in the four large grids/4×10^4/mL
Total number of cells/mL=total number of cells in the four large grids/4×10^4/mL×dilution factor.
After counting, the cells were diluted with Neurobasal selection medium so that 1 mL of Neurobasal culture medium contained 0.5×10^6 cells.
200 μL of PDL solution previously heated in a 37° C. water bath was added to each well of a 6-well plate, and incubated at 37° C. overnight to allow PDL to evenly coat the well plate. The PDL solution was absorbed and the plate was washed twice with PBS. Before use, the PBS remaining on the plate was absorbed and the cover was opened to dry the plate in a super clean bench. 2 mL of cell suspension was added to each well (37° C., 5% CO2), and the cells were cultured until adherence. The culture medium was replaced and the culture continued for 3 days, and then the growth status of neurons was observed. Every other 3 days, half of the medium was removed and replaced with fresh complete medium. The culture continued until the primary cortical neuron cells mature (usually mature on the 14th day of culture).
After the primary cortical neuron cells have matured, appropriate amount of freshly prepared culture medium was added until final volume in each well was 2 mL. The experiment included a blank control group (Vehicle), a positive control group BDNF (10 ng/mL), a control compound group (500 nM), and 6 test compound groups (500 nM). Three repeats were set for each dose. After incubating at 37° C. for 10 min, the culture solution was discarded and the cells were washed with pre-chilled PBS, and then 40 μL of pre-chilled lysate (RIPA buffer 10 mL and protease and phosphatase inhibitor 100 μL) was added to each well for lysis on ice for 30 min. After lysis, the cell was crushed by ultrasonic cell crusher, centrifuged at 14000 rpm for 20 min at 4° C. The supernatant was transferred to a new 1.5 mL centrifuge tube to extract protein. Western blotting experiments were used to detect the protein levels of (A) p-TrkB and t-TrkB; (B) p-AKT and t-AKT.
The software Sigmaplot 13.0 was used for statistical analysis of the data, and the data of each group was expressed as mean±standard error (x±SEM). […]
Background: A western blot detects proteins with antibodies after separation by electrophoresis.
Turning to `O=c1cc(-c2ccc(N3CCCCC3)cc2)oc2c(O)c(O)ccc12` [Example 1, 7,8-dihydroxy-2-(4-(piperidin-1-yl)phenyl)-4H-chromen-4-one], the “Relative intensity of p-AKT/t-AKT protein” value is listed as 219.663 ± 8.085.
Take `COc1ccc2c(=O)cc(-c3ccc(N4CCCCC4)cc3)oc2c1OC` [Example 2, 7,8-dimethoxy-2-(4-(piperidin-1-yl)phenyl)-4H-chromen-4-one]: the “Relative intensity of p-AKT/t-AKT protein” value amounted to 209.651 ± 3.294.
The same measure, in the same setting: the value for `CN(C)C1CCN(c2ccc(-c3cc(=O)c4ccc(O)c(O)c4o3)cc2)CC1` [Example 3, 2-(4-(4-(dimethylamino)piperidin-1-yl)phenyl)-7,8-dihydroxy-4H-chromen-4-one] was 240.213 ± 8.376.
Consider `CC1(C)CCN(c2ccc(-c3cc(=O)c4ccc(O)c(O)c4o3)cc2)CC1` [Example 4, 2-(4-(4,4-dimethylpiperidin-1-yl)phenyl)-7,8-dihydroxy-4H-chromen-4-one], for which the “Relative intensity of p-AKT/t-AKT protein” value worked out at 215.698 ± 5.487.
On the same count and under the same terms, the value for `CC1CC(C)CN(c2ccc(-c3cc(=O)c4ccc(O)c(O)c4o3)cc2)C1` (centres unmarked) [Example 5, 2-(4-(3,5-dimethylpiperidin-1-yl)phenyl)-7,8-dihydroxy-4H-chromen-4-one] was 219.904 ± 6.954.
